{"source": "patent US20040170645A1", "about": "“Seaweed extract composition for retardation of cardiovascular disorders and preservation of healthy cardiovascular function” (priority 2002, published 2004)", "test_system": "thrombus in the right jugular vein", "test": "Thrombosis test (jugular vein, formalin/methanol initiated)", "type": "in vivo, rat", "conditions": "7.5 mg/kg oral, 4 h", "protocol": "One hundred and two male Wistar rats, weighing 312±64 g (±SD), were handled and housed according to the Principles of Animal Care set out by the Canadian Federation of Biological Societies. The animals were fasted overnight prior to treatment and were anaesthetized with barbital and methoxyflurane for experimental procedures.\nThe rhamnan-arginine complex was weighed fresh daily. Six to 8 rats were treated per day. […] Thus when the stomach tube was placed in the stomach the drugs were first introduced into the stomach followed by saline to give a total volume of approximately 0.4 ml. In the heparin alone group, heparin was administered in a volume of 0.1-0.2 ml followed by 0.2 ml saline. Control group was saline alone.\nThe thrombosis test was performed by a modification of the procedure by Blake et al. For animals exposed to treatment for 4 h, a thrombus was initiated in the right jugular vein by application of 10% formalin in 65% methanol to the exposed adventitial surface. Immediately following, drugs were introduced into the stomach by stomach tube. […] The clot was scored as + (hard clot) if the vessel is blocked and remained blocked despite examination with a cotton pledget. […] The thrombus was scored as − (negative) if blood was seen to flow freely in the vessel.\nThrombosis data is expressed as a percentage with 95% confidence intervals. […] Other data is expressed as mean ±SE. […]"}
{"substance": "Heparin", "values": [{"measurement": "incidence of hard clots", "value": "reduced the percentage of incidence of hard clots"}, {"measurement": "total incidence of thrombosis", "value": "little or no effect"}]}
